Measured values taken from patent publication US9603813B2, “Visual performance and/or macular pigmentation” (Howard Foundation Holdings Limited, priority 2011, dated 2017).

Columns and labels:
Bovan Goldline hens = test: Carotenoid contents of egg yolks from hens fed mixed carotenoids (HPLC)
Description: Eight Bovan Goldline hens were obtained at approximately 18 weeks of age.
When the hens were producing at least 8 eggs per day in total, the hens were isolated and fed only a commercial meal. […] The premix provided 250 mg MZ/kg feed with proportions of L 50, MZ 30, Z 20.
The yolk carotenoids were measured in mixtures prepared from all eggs collected at baseline, three and six weeks.
Yolks were individually weighed and mixed with phosphate-buffered saline and made up to 50 ml. Two ml of each suspension was mixed in a separate universal tube for each of the three batches separately and stored at −40 C.
The egg yolk suspension (0.1 ml) was mixed with 0.15 ml aqueous KOH (25 gl100 mlwater), 0.15 ml absolute ethyl alcohol and 0.1 ml echinenone (internal standard, 0.4 mg/500 ml ethyl alcohol) in a glass extraction tube and incubated at 45 C for 45 minutes.
Solutions were then cooled and mixed vigorously with 1.5 ml hexane (containing BHT500 mg/l) and centrifuged to separate the hexane and aqueous layers. One ml of the upper hexane layer was transferred to an evaporating tube and the residue was re-extracted with 1.5 ml hexane. After centrifuging, 1.5 ml of the upper layer was removed and the extracts combined and evaporated to dryness under nitrogen at 40 C. The residue was made up to 0.15 ml with mobile phase (see Ultracarb HPLC below) and 0.1 ml was injected onto a Ultra Carb Column for HLPC analysis.
Separation and quantitation of the MZ was achieved using a two column procedure.
Ultracarb procedure: Extracts prepared as described above were reconstituted in a mobile phase comprising acetonitrile:methanol (85:15 containing 0.1% triethylamine). Using the same solvent mixture at 1.5 ml/min, extracts were chromatographed isocratically using a 3 micro m Ultracarb ODS column (250×4.6 mm, Phenomenex, UK) and detected using a photodiode-array detector (model 2996, Waters Ltd) to quantify L and Z+MZ at 450 nm. Eluent that coincided with the emergence of MZ+Z was collected from the waste line and evaporated to dryness under nitrogen.
Chiral chromoatography: The Z+MZ extract was then reconstituted in 0.1 ml of hexane:isopropanol (90:10) and 50 uL was chromatographed on a 10 micro m Chiralpak® AD column (250×4.6 mm; Chiral Technologies Europe, 67404 Illkirch Cedex, France) to determine the proportion of MZ and Z isomers using gradient elution at 0.8 ml/min starting with 90% hexane and 10% isopropyl alcohol and increasing to 95% hexane in a linear gradient over 30 minutes.

[1] = Plasma carotenoids in one person consuming one egg per day (HPLC); conditions: human, in vivo
Description: The objective of this study was to feed hens a mixture of L, MZ and Z to determine the total amount of MZ in the yolk. In addition 24 eggs collected at the end of the experiment were consumed by one subject, one egg/day and the blood MZ composition determined.
Blood (10 ml) from a human subject was collected in lithium heparin tubes at baseline, day 12 and day 24 after consumption of one egg per day and centrifuged to provide plasma subsequently stored at −40 C. Plasma, 0.25 ml was mixed with 0.2 ml sodium dodecyl sulphate, 0.4 ml ethyl acetate (internal standard). Hexane containing BHT (1.0 ml) was added and the mixture extracted vigorously for 4 minutes, centrifuged for 10 mins and 0.7 ml of the upper hexane layer removed and evaporated to dryness.
The residue was made up to 0.1 ml with mobile phase (see HPLC procedure below) and 0.05 ml was injected onto the column.

[2] = feeding 250 ppm of the carotenoid mixture for 3 weeks

Row | concentration at 12 day [1] | concentration at 24 day [1] | contents of plasma in one person consuming one egg per day [1] | Structure (SMILES) | contents of egg yolks from chicken fed 250 mg/kg mixed carotenoids (Bovan Goldline hens; Weeks 0 (baseline)) | contents of egg yolks from chicken fed 250 mg/kg mixed carotenoids (Bovan Goldline hens; Weeks 3) | contents of egg yolks from chicken fed 250 mg/kg mixed carotenoids (Bovan Goldline hens; Weeks 6) | share of the yolk carotenoid content (Bovan Goldline hens; [2]) | content of egg yolks (Bovan Goldline hens; [2])
1 | 1200 nM | 1060 nM | 0.55 micro moles per litre | CC1=C[C@H](O)CC(C)(C)[C@H]1/C=C/C(C)=C/C=C/C(C)=C/C=C/C=C(C)/C=C/C=C(C)/C=C/C1=C(C)C[C@@H](O)CC1(C)C [L, lutein] | 563 micro grams per yolk | 2100 micro grams per yolk | 2260 micro grams per yolk | circa 76% | –
2 | – | – | – | CC1=C(/C=C/C(C)=C/C=C/C(C)=C/C=C/C=C(C)/C=C/C=C(C)/C=C/C2=C(C)C[C@@H](O)CC2(C)C)C(C)(C)C[C@H](O)C1 [Z, zeaxanthin] | 278 micro grams per yolk | 366 micro grams per yolk | 328 micro grams per yolk | 13% | –
3 | – | – | – | CC1=C(/C=C/C(C)=C/C=C/C(C)=C/C=C/C=C(C)/C=C/C=C(C)/C=C/C2=C(C)C[C@H](O)CC2(C)C)C(C)(C)C[C@H](O)C1 [MZ, (trans, 3R, 3′S meso)-zeaxanthin] | 0 micro grams per yolk | 315 micro grams per yolk | 272 micro grams per yolk | 11% | 2.78 mg MZ/yolk
